Experimental data taken from paper PMC12454493, “Insight on novel sulfamoylphenyl pyrazole derivatives as anticancer carbonic anhydrase inhibitors” (Molecular Diversity, 2024).
Several values for one entry are separate records, joined by “and”; a condition that tells them apart may be missing. Equal values may be shown once. Read-outs that look alike come from different tables or passages of the source.

Legend:
SR = assay: NCI-60 one-dose SRB screen (Leukemia); assay type: cell-based; conditions: Homo sapiens, single dose 10 µM, 48 h, read-out: Growth inhibition percent (GI %)
KM12 = assay: NCI-60 one-dose SRB screen (Colon Cancer); assay type: cell-based; conditions: Homo sapiens, single dose 10 µM, 48 h, read-out: Growth inhibition percent (GI %)
HCT-15 = assay: NCI-60 one-dose SRB screen (Colon Cancer); assay type: cell-based; conditions: Homo sapiens, single dose 10 µM, 48 h, read-out: Growth inhibition percent (GI %)
COLO 205 = assay: NCI-60 one-dose SRB screen (Colon Cancer); assay type: cell-based; conditions: Homo sapiens, single dose 10 µM, 48 h, read-out: Growth inhibition percent (GI %)
HT29 = assay: NCI-60 one-dose SRB screen (Colon Cancer); assay type: cell-based; conditions: Homo sapiens, HT-29, single dose 10 µM, 48 h, read-out: Growth inhibition percent (GI %)
HCT-116 = assay: NCI-60 one-dose SRB screen (Colon Cancer); assay type: cell-based; conditions: Homo sapiens, single dose 10 µM, 48 h, read-out: Growth inhibition percent (GI %)
SW-620 = assay: NCI-60 one-dose SRB screen (Colon Cancer); assay type: cell-based; conditions: Homo sapiens, single dose 10 µM, 48 h, read-out: Growth inhibition percent (GI %)
HCC-2998 = assay: NCI-60 one-dose SRB screen (Colon Cancer); assay type: cell-based; conditions: Homo sapiens, single dose 10 µM, 48 h, read-out: Growth inhibition percent (GI %)
hCA XII = hCA XII (Homo sapiens, UniProt O43570); assay: CA inhibitory activity, spectrophotometric p-NPA assay; assay type: biochemical; conditions: for IC50: p-NPA substrate, pH 7.5, 25 °C, triplicate, read-out: IC50 (µM) ± SD hCA XII
TK-10 = assay: NCI-60 one-dose SRB screen (Renal Cancer); assay type: cell-based; conditions: Homo sapiens, single dose 10 µM, 48 h, read-out: Growth inhibition percent (GI %)
RXF 393 = assay: NCI-60 one-dose SRB screen (Renal Cancer); assay type: cell-based; conditions: Homo sapiens, single dose 10 µM, 48 h, read-out: Growth inhibition percent (GI %)
CAKI-1 = assay: NCI-60 one-dose SRB screen (Renal Cancer); assay type: cell-based; conditions: Homo sapiens, single dose 10 µM, 48 h, read-out: Growth inhibition percent (GI %)
ACHN = assay: NCI-60 one-dose SRB screen (Renal Cancer); assay type: cell-based; conditions: Homo sapiens, single dose 10 µM, 48 h, read-out: Growth inhibition percent (GI %)
786-0 = assay: NCI-60 one-dose SRB screen (Renal Cancer); assay type: cell-based; conditions: Homo sapiens, single dose 10 µM, 48 h, read-out: Growth inhibition percent (GI %)
SN12C = assay: NCI-60 one-dose SRB screen (Renal Cancer); assay type: cell-based; conditions: Homo sapiens, single dose 10 µM, 48 h, read-out: Growth inhibition percent (GI %)
A498 = assay: NCI-60 one-dose SRB screen (Renal Cancer); assay type: cell-based; conditions: Homo sapiens, single dose 10 µM, 48 h, read-out: Growth inhibition percent (GI %)
UO-31 = assay: NCI-60 one-dose SRB screen (Renal Cancer); assay type: cell-based; conditions: Homo sapiens, single dose 10 µM, 48 h, read-out: Growth inhibition percent (GI %)
[1] = test system: panel of 60 cancer cell lines; assay: NCI-60 one-dose SRB screen, range over the whole panel; assay type: cell-based; conditions: Homo sapiens; single dose 10 µM, SRB assay, range over the tested cell lines; read-out: growth inhibition (GI %) range over the panels
Method: The National Cancer Institute (NCI) Developmental Therapeutic Program (www.dtp.nci.nih.gov) selected the 20 novel synthesized compounds 4a-e, 5a-e, 6a-c, 9a-e, 10 and 11 to test for their anticancer activity at a single dose of 10 µM using SRB assay. […] Supplementary Data S3; Table S1 presents the detailed screening results of the most promising compounds. The preliminary screening’s detailed results for the remaining compounds are elucidated in the (Supplementary Data S3; Table S2).
The guidelines of the Drug Evaluation Branch’s protocol at the NCI in Bethesda served as the basis for the in vitro anticancer screening assays. at one dose 10 µM against a panel of 60 cancer cell lines. The human tumor cell lines used belonged to nine panels: leukemia, melanoma, lung, colon, CNS, ovarian, renal, prostate and breast cancers using the sulforhodamine B (SRB) assay in a 48 h drug exposure protocol.

[2] = test system: MCF-7 breast cancer cell line; assay: In vitro cytotoxicity, MTT assay; conditions: Homo sapiens
Method: In vitro cytotoxic activity:
Firstly, cultures were delivered into sterile area then each vial was supplied with 3 mL of medium or balanced salt solution free from phenol red and serum. Cultures were subjected to incubation foe 2-4 g. After the incubation period, MTT solubilization solution was added to remove the produced formazan crystals. Spectrophotometric measurement of absorbance was carried out at 690 nm for the background which then subtracted from absorbance measured at 570 nm. Five different drug concentrations were used 100, 25, 6.3, 1.6 and 0.4 nM and measured in triplicate.
was determined using Annexin V-FITC Apoptosis Detection Kit (Bio Vision) according to the manufacturer’s procedures. Briefly, cell lines were cultured and incubated with each of the tested compounds for 48 h. Then, the cells were collected by centrifugation and resuspended in 500 μl of 1X binding buffer. 5 μl of Annexin V-FITC was added and 5 μl of propidium iodide (PI 50 mg/ml, optional.). The cells were incubated at room temperature for
Then, the cells were collected by centrifugation and resuspended in 500 μl of 1X binding buffer. 5 μl of Annexin V-FITC was added and 5 μl of propidium iodide (PI 50 mg/ml, optional.). the cells were incubated at room temperature for 5 min in the dark.

[3] = test system: MCF-7 breast cancer cell line; assay: Apoptotic assay, Annexin V-FITC/propidium iodide; assay type: cell-based, human
Method: S.1.4. Cell cycle analysis and Apoptotic assay
S.1.4.1. Cell cycle analysis […]
(§1) Briefly, cell lines were cultured and incubated with each of the tested compounds for 48 h. Then, the cells were collected by centrifugation and resuspended in 500 μl of 1X binding buffer. 5 μl of Annexin V-FITC was added and 5 μl of propidium iodide (PI […], optional.). The cells were incubated at room temperature for 5 min in the dark. Annexin V-FITC binding was analyzed by flow cytometry (Ex = 488 nm; Em = 530 nm) using FITC signal detector and PI staining was analyzed by the phycoerythrin emission signal detector.
S.1.4.2. Apoptotic assay: cell lines were cultured and incubated with each of the tested compounds for 48 h.
as §1, with “Then,” for “Briefly, cell lines were cultured and incubated with each of the tested compounds for 48 h. Then,”, “the” for “The”

[4] = test system: MCF-7 breast cancer cell line; assay: Cell cycle analysis by flow cytometry; assay type: cell-based, human; conditions: 24 h
[5] = MCF-7, hypoxic conditions, at IC50 (3.50 µM)
[6] = MCF-7, normal conditions, at IC50 (5.21 µM)

hCA XII, sequence (O43570 25-354): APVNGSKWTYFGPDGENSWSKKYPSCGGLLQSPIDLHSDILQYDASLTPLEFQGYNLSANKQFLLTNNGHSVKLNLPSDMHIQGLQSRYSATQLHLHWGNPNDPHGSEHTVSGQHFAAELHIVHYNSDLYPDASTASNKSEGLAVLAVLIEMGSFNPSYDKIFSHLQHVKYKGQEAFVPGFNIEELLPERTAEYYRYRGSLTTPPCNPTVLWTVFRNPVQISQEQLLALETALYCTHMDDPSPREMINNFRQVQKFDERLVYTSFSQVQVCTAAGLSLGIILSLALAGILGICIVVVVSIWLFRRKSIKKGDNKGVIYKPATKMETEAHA

SMILES	inhibition at 10 µM (SR)	inhibition at 10 µM (KM12)	inhibition at 10 µM (HCT-15)	inhibition at 10 µM (COLO 205)	inhibition at 10 µM (HT29)	inhibition at 10 µM (HCT-116)	inhibition at 10 µM (SW-620)	inhibition at 10 µM (HCC-2998)	IC50 (hCA XII)	inhibition at 10 µM (TK-10)	inhibition at 10 µM (RXF 393)	inhibition at 10 µM (CAKI-1)	inhibition at 10 µM (ACHN)	inhibition at 10 µM (786-0)	inhibition at 10 µM (SN12C)	inhibition at 10 µM (A498)	inhibition at 10 µM (UO-31)	also measured
NS(=O)(=O)c1ccc(NC(=O)COC(=O)c2cn(-c3ccc(S(N)(=O)=O)cc3)nc2-c2ccc(Br)cc2)cc1 [Compound 4d, 2-Oxo-2-[(4-sulfamoylphenyl)amino] ethyl 3-(4-bromophenyl)-1-(4-sulfamoylphenyl)-1H-pyrazole-4-carboxylate]	22.9%	< 5%	10.6%	8.46%	< 5%	84.6%	< 5%	< 5%	0.81 µM and 0.814 µM	< 5%	< 5%	63.5%	< 5%	86.5%	11.8%	16.8%	23.2%	inhibition at 10 µM [1]: 8.46 to 86.5%
CCOC(=O)c1ccc(NC(=O)COC(=O)c2cn(-c3ccc(S(N)(=O)=O)cc3)nc2-c2ccc(Br)cc2)cc1 [Compound 5d, 2-[(4-(Ethoxycarbonyl)phenyl)amino]-2-oxoethyl 3-(4-bromophenyl)-1-(4-sulfamoylphenyl)-1H-pyrazole-4-carboxylate]	80.1%	76.7%	76.4%	61.2%	88.3%	73.6%	50.6%	54.3%	0.99 ± 0.037 µM	18.4%	82.8%	81.9%	66%	74.9%	47.1%	20.6%	58.9%	–
COc1ccc(-c2nn(-c3ccc(S(N)(=O)=O)cc3)cc2C(=O)OCC(=O)Nc2ccc(S(N)(=O)=O)cc2)cc1 [Compound 4c, 2-Oxo-2-[(4-sulfamoylphenyl)amino] ethyl 3-(4-methoxyphenyl)-1-(4-sulfamoylphenyl)-1H-pyrazole-4-carboxylate]	< 5%	< 5%	< 5%	< 5%	< 5%	37.5%	< 5%	< 5%	0.41 µM and 0.415 µM	< 5%	< 5%	8.36%	< 5%	28.9%	< 5%	< 5%	11.9%	–
Cc1ccc(-c2nn(-c3ccc(S(N)(=O)=O)cc3)cc2C(=O)NNC(N)=S)cc1 [Compound 9b, 2-[1-(4-Sulfamoylphenyl)-3-(p-tolyl)-1H-pyrazole-4-carbonyl] hydrazine-1-carbothioamide]	< 5%	< 5%	< 5%	< 5%	< 5%	< 5%	< 5%	< 5%	0.33 µM and 0.335 µM	< 5%	< 5%	7.05%	< 5%	< 5%	< 5%	< 5%	< 5%	–
NC(=S)NNC(=O)c1cn(-c2ccc(S(N)(=O)=O)cc2)nc1-c1ccc(Br)cc1 [Compound 9d, 2-[3-(4-Bromophenyl)-1-(4-sulfamoylphenyl)-1H-pyrazole-4-carbonyl] hydrazine-1-carbothioamide]	6.97%	< 5%	< 5%	< 5%	< 5%	< 5%	< 5%	< 5%	1.42 ± 0.053 µM	< 5%	< 5%	12.1%	< 5%	< 5%	< 5%	< 5%	14.7%	–
CCOC(=O)c1ccc(NC(=O)COC(=O)c2cn(-c3ccc(S(N)(=O)=O)cc3)nc2-c2ccc(C)cc2)cc1 [Compound 5b, 2-[(4-(Ethoxycarbonyl)phenyl)amino]-2-oxoethyl 1-(4-sulfamoylphenyl)-3-(p-tolyl)-1H-pyrazole-4-carboxylate]	73.4%	70.3%	65.7%	42.3%	64.4%	60.7%	37%	47%	0.1 µM and 0.106 µM	14%	73.2%	70.2%	52.8%	66%	38.2%	31.7%	58.8%	IC50 ([2]; MCF7, read-out: IC50 (µM) ± SD cytotoxic activity, MCF-7, MTT, normal conditions): 5.21 ± 0.21 µM; IC50 ([2]; MCF7, read-out: IC50 (µM) ± SD cytotoxic activity, MCF-7, MTT, under hypoxia): 3.5 ± 0.14 µM; Ki (hCA XII): 106 nM; Apoptosis % Early % ([3]; MCF-7, hypoxic conditions): 21.41%; Apoptosis % Late % ([3]; MCF-7, hypoxic conditions): 11.49%; Apoptosis % Total % ([3]; MCF-7, hypoxic conditions): 37.31%; Necrosis % ([3]; MCF-7, hypoxic conditions): 4.41%; Apoptosis % Early % ([3]; MCF-7, normal conditions): 13.52%; Apoptosis % Late % ([3]; MCF-7, normal conditions): 25.05%; Necrosis % ([3]; MCF-7, normal conditions): 3.76%; DNA content % G0-G1 [4, 5]: 48.13%; DNA content % G2/M [4, 5]: 32.28%; DNA content % S [4, 5]: 19.59%; DNA content % G0-G1 [4, 6]: 67.39%; DNA content % G2/M [4, 6]: 3.05%; DNA content % S [4, 6]: 29.56%
